This note sets out measurements from patent US20170137410A1, “FUSED CYCLOALKYL-PYRIMIDINE COMPOUNDS AND USES THEREOF” (Medivation Technologies, Inc., priority 2014, published 2017).

Holding throughout (assay type): biochemical
The target in one assay is T1, activated IR (Homo sapiens, UniProt P06213).
T1 construct: purchased Millipore 14-803
In words: In vitro IR enzymatic assay (ADP-Glo). The note with it: ATP 50 μM. As to the method: Inhibition of IGF-1R and IR kinases by compounds described herein were tested. The IC50 values were measured in vitro using an ADP-Glo kinase assay Kit (Promega). For the IGF-1R assay, active recombinant IGF-1R (Millipore #14-802) was used at 1 ng/reaction, the substrate IGF-1R tide (Millipore #12-527) was used at 125 μM and ATP was used at 100 μM. For the IR assay, active recombinant IR (Millipore #14-803) was used at 1 ng/reaction, the substrate Axl tide (Millipore #12-516) was used at 125 μM and ATP at 50 μM. Kinase reactions in both assays were conducted at 30° C. for 20 min with increasing concentrations of the test compounds.
The assay results as the percent inhibition of binding are presented in Tables B2 and B3 for IGF-1R and IR respectively.

For another assay, the target named is T2, FLT3 (Homo sapiens, UniProt P36888).
T2 sequence (P36888 27-993): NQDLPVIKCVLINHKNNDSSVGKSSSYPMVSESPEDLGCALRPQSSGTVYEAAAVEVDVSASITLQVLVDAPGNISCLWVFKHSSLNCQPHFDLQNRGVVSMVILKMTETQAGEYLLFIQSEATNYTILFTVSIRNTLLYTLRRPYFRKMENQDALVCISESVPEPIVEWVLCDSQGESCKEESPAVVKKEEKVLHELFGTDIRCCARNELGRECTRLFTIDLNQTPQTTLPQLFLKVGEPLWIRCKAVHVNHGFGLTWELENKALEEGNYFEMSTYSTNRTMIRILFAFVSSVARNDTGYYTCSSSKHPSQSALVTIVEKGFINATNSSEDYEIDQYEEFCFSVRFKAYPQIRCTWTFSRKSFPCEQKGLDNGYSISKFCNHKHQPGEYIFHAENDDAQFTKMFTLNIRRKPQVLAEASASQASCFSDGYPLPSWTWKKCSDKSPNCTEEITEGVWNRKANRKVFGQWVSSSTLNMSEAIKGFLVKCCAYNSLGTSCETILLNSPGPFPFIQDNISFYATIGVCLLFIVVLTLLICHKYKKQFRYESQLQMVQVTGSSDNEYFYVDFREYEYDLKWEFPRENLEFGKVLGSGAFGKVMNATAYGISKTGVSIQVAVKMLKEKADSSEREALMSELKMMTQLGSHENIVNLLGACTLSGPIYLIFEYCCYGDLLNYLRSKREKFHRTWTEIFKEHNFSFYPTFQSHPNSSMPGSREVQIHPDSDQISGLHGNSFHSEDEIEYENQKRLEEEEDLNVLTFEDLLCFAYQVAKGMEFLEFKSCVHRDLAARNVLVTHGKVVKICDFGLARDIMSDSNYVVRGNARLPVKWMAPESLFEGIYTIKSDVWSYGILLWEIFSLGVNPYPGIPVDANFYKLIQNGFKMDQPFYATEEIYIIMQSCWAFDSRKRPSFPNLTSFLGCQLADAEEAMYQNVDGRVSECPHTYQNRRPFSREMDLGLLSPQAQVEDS
In words: HotSpot kinase assay against FLT3. The note with it: HotSpot 33P assay, ATP 10 μM. As to the method:
Kinase assays were performed using test compounds against a panel of FLT3 kinases: FLT3; FLT3 (D835Y); and FLT3 (ITD). Compounds were prepared as 10 mM stock solutions in DMSO prior to use in the assay. Each compound was tested at 10 concentrations with three-fold serial dilution starting at 1 μM against the three kinases. The control compound, staurosporine, was tested at 10 concentrations with four-fold serial dilution starting at 20 μM. IC50 values and curve fits were obtained using Prism (GraphPad Software). The screening was performed using the “HotSpot” assay platform. The assay measures the conversion of a peptide substrate to ^33P-labelled phosphorylated product. Briefly, specific kinase/substrate pairs along with required cofactors were prepared in reaction buffer. Specifically, the substrate was prepared in reaction buffer (20 mM Hepes, pH 7.5; 10 mM MgCl2; 1 mM EGTA; 0.02% Brij35; 0.02 mg/mL BSA; 0.1 mM Na3VO4; 2 mM DTT; 1% DMSO), followed by delivery of any required cofactor to the resulting substrate solution. The corresponding kinase was delivered into the substrate solution and the reaction mixture was mixed gently. Compound was delivered into the reaction mixture, followed 15-20 min later by addition of a mixture of ATP (Sigma, St. Louis Mo.) and ^33P ATP (specific activity 0.01 μCi/μL final; Perkin Elmer, Waltham, Mass.) to a final concentration of 10 μM to initiate the reaction. Reactions were carried out at RT for 120 min, followed by spotting of the reactions onto P81 ion exchange filter paper (Whatman #3698-915; Whatman Inc., Piscataway, N.J.). Unbound phosphate was removed by extensive washing of filters in 0.75% phosphoric acid. […] The percent of enzyme inhibition was calculated based on the percent of remaining kinase activity. IC50 values were determined.

The next assay deals with ABL2/ARG (Homo sapiens, UniProt P42684). In words: HotSpot kinase assay against ABL2/ARG. The settings on record: HotSpot 33P assay, ATP 10 μM-30 μM. The protocol:
(§1) The screening was performed using the “HotSpot” assay platform. The assay measures the conversion of a peptide substrate to ^33P-labelled phosphorylated product. Briefly, specific kinase/substrate pairs along with required cofactors were prepared in reaction buffer. Specifically, the substrate was prepared in reaction buffer (20 mM Hepes, pH 7.5; 10 mM MgCl2; 1 mM EGTA; 0.02% Brij35; 0.02 mg/mL BSA; 0.1 mM Na3VO4; 2 mM DTT; 1% DMSO), followed by delivery of any required cofactor to the resulting substrate solution. The corresponding kinase was delivered into the substrate solution and the reaction mixture was mixed gently. Compound was delivered into the reaction mixture, followed 15-20 minutes later by addition of a mixture of ATP (Sigma, St. Louis Mo.) and ^33P ATP (specific activity 0.01 μCi/μL final; Perkin Elmer, Waltham, Mass.) to a final concentration of 10 μM-30 μM to initiate the reaction. Reactions were carried out at RT for 120 min, followed by spotting of the reactions onto P81 ion exchange filter paper (Whatman #3698-915; Whatman Inc., Piscataway, N.J.). Unbound phosphate was removed by extensive washing of filters in 0.75% phosphoric acid. […] The percent of enzyme inhibition was calculated based on the percent of remaining kinase activity. IC50 values and curve fits were obtained using Prism (GraphPad Software).

The target of the next assay is ROS/ROS1 (Homo sapiens, UniProt P08922). Put plainly: HotSpot kinase assay against ROS/ROS1. The note with it: HotSpot 33P assay, ATP 10 μM-30 μM. The protocol:
as §1

ROS/ROS1, sequence (P08922 28-2347): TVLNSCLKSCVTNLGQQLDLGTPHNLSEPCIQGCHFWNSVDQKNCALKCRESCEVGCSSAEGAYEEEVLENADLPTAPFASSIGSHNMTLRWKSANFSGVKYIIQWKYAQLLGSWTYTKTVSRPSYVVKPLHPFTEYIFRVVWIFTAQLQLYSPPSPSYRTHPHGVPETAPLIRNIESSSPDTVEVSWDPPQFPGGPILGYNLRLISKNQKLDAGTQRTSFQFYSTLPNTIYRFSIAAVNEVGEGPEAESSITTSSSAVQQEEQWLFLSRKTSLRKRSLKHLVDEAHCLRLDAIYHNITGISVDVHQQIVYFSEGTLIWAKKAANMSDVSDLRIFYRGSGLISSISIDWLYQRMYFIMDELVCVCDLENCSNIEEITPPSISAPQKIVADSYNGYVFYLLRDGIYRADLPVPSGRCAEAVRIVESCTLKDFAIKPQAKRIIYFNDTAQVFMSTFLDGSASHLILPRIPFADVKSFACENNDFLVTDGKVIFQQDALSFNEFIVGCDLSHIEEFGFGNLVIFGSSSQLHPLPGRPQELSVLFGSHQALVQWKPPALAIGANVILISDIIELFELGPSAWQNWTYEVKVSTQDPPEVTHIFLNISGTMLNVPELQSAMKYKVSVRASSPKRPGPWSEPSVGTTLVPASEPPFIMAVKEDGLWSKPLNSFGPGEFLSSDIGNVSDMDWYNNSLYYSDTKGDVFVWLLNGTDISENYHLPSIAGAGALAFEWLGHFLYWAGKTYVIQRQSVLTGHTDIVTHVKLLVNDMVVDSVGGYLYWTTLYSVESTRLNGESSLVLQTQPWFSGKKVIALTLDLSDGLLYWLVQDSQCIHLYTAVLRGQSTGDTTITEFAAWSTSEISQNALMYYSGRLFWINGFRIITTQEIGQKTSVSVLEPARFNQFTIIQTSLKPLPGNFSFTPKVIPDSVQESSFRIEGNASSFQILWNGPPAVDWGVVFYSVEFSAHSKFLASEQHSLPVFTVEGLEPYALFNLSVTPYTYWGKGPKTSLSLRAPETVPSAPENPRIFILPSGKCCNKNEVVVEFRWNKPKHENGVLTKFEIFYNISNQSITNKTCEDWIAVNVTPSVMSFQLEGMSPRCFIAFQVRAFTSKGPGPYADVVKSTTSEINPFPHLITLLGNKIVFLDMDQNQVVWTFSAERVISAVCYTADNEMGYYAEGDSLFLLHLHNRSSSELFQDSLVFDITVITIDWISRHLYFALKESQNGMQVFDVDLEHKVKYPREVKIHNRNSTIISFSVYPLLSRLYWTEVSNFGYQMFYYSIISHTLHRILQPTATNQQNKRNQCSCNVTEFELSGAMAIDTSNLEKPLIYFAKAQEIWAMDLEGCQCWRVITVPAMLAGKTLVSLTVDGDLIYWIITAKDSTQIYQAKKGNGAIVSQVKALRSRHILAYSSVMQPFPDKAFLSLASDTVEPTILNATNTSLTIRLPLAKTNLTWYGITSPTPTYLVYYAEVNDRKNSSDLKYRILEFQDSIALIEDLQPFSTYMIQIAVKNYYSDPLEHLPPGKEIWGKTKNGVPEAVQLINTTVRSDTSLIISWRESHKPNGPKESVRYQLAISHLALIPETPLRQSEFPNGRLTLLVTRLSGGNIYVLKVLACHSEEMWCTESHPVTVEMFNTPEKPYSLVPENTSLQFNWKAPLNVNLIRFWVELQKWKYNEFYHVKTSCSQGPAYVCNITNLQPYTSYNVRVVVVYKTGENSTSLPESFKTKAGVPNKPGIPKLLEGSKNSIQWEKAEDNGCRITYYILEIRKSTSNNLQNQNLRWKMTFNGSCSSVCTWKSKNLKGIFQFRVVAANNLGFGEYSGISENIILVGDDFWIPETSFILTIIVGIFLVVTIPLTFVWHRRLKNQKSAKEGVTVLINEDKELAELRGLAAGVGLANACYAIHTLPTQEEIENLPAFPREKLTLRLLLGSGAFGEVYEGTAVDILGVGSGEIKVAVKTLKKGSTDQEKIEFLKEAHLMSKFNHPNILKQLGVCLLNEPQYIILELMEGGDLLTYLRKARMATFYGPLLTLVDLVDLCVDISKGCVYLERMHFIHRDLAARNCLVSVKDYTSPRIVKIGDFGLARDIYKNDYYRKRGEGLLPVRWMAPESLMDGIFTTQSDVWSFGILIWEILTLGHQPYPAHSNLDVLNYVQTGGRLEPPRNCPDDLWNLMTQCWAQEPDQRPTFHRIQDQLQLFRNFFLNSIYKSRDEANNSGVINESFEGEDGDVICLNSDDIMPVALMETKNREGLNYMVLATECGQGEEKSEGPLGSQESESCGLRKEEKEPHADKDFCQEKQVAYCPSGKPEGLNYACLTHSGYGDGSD
T1 sequence (P06213 28-1382): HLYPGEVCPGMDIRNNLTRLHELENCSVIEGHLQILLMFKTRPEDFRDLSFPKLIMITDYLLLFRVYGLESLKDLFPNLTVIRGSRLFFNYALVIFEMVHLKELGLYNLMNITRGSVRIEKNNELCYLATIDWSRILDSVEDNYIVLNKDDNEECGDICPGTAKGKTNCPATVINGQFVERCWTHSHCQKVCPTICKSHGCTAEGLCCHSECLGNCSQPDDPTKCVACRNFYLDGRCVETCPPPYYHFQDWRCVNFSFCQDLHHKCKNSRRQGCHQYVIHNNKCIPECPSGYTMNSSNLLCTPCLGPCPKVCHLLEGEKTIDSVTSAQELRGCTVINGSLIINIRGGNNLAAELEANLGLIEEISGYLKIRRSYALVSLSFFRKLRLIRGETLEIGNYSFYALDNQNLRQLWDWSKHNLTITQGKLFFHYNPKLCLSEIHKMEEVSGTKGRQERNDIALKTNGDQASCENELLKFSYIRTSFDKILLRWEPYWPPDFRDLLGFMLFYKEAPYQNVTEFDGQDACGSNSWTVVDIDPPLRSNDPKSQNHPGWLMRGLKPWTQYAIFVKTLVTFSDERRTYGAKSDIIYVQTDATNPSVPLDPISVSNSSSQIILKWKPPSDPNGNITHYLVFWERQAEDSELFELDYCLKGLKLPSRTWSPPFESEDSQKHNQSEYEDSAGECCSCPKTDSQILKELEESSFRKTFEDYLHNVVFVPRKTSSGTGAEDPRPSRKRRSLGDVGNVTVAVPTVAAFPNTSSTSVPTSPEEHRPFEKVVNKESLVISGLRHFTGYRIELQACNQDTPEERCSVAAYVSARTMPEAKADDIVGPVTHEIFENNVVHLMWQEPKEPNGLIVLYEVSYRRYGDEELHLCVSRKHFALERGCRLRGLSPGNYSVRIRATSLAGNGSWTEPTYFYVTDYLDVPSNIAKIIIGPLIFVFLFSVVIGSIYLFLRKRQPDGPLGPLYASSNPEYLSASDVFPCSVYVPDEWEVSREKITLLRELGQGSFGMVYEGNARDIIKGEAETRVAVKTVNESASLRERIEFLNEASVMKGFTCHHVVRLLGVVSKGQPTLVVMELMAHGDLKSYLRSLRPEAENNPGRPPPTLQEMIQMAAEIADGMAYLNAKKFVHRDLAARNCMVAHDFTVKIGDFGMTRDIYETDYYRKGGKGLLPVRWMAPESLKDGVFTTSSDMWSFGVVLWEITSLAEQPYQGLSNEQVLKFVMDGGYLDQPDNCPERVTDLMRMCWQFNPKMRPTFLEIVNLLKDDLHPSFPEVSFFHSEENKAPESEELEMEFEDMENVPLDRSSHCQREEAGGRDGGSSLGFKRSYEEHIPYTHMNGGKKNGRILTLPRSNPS
ABL2/ARG, sequence (P42684 whole entry): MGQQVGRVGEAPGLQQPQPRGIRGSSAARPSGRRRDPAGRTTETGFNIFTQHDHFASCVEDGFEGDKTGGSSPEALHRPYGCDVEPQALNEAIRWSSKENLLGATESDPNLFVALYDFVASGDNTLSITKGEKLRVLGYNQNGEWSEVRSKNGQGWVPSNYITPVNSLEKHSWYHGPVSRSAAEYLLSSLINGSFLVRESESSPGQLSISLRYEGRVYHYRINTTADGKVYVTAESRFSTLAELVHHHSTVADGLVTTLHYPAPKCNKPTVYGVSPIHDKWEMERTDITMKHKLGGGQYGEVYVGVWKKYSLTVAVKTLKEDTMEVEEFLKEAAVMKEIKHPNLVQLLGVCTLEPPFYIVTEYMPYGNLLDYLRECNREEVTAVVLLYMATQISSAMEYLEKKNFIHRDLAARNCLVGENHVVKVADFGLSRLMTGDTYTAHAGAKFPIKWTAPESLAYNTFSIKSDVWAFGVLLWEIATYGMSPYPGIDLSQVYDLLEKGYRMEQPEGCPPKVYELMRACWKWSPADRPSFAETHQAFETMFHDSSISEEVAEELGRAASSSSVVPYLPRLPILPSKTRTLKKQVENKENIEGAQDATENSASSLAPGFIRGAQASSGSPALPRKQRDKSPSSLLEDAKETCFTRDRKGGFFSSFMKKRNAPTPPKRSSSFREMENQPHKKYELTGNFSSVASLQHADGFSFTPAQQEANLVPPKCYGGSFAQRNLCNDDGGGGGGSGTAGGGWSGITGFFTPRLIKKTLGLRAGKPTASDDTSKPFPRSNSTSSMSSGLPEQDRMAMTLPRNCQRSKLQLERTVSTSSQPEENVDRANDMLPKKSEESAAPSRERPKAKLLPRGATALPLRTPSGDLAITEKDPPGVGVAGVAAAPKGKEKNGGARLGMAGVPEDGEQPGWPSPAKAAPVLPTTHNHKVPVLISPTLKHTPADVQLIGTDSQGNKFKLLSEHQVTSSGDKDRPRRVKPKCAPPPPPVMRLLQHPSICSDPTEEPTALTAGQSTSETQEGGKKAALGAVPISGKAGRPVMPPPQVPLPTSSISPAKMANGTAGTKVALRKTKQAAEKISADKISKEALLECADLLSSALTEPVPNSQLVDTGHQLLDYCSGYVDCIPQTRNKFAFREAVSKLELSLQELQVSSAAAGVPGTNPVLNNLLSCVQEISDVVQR

As for `CCN(C(=O)[C@@H]1CCCN1c1nc2c(c(Nc3cc(C(C)C)[nH]n3)n1)CCC2)c1nccs1` [145b, (S)—N-ethyl-1-(4-((5-isopropyl-1H-pyrazol-3-yl)amino)-6,7-dihydro-5H-cyclopenta[d]pyrimidin-2-yl)-N-(thiazol-2-yl)pyrrolidine-2-carboxamide], the results for the IC50 against activated IR and against FLT3 were 0.67 µM and 0.155 µM, respectively.

Turning to `CC(C)(C)c1cc(Nc2nc(N3CCC[C@H]3C(=O)N3CCC(F)(F)CC3)nc3c2CCC3)n[nH]1` [142b, (S)-(1-(4-((5-(tert-butyl)-1H-pyrazol-3-yl)amino)-6,7-dihydro-5H-cyclopenta[d]pyrimidin-2-yl)pyrrolidin-2-yl)(4,4-difluoropiperidin-1-yl)methanone], the half-maximal inhibitory concentration (IC50) at activated IR is 11.6 µM; at FLT3 it was > 1 µM; against ABL2/ARG, > 1 µM; against ROS/ROS1, > 1 µM.

For `CCN(C(=O)[C@@H]1CCCN1c1nc2c(c(Nc3cc(C(C)(C)C)[nH]n3)n1)CCC2)c1nccs1` [144b, (S)-1-(4-((5-(tert-butyl)-1 H-pyrazol-3-yl)amino)-6,7-dihydro-5H-cyclopenta[d]pyrimidin-2-yl)-N-ethyl-N-(thiazol-2-yl)pyrrolidine-2-carboxamide], the IC50 on activated IR is 5.96 µM; at FLT3, > 1 µM; on ABL2/ARG, > 1 µM; on ROS/ROS1, > 1 µM.

`CCC(=O)N1CCN(C(=O)[C@@H]2CCCN2c2nc3c(c(Nc4cc(C5CCCC5)[nH]n4)n2)CCC3)CC1` [143b, (S)-1-(4-((4-((5-cyclopentyl-1H-pyrazol-3-yl)amino)-6,7-dihydro-5H-cyclopenta[d]pyrimidin-2-yl)prolyl)piperazin-1-yl)propan-1-one]: the IC50 against activated IR is 17.2 µM; at FLT3, 0.058 µM; at ABL2/ARG, > 1 µM; against ROS/ROS1, > 1 µM.

Regarding `CC(C)c1cc(Nc2nc(N3CCC[C@H]3C(=O)N(C)c3nccs3)nc3c2CCC3)n[nH]1` [68b, (S)-1-(4-((5-isopropyl-1H-pyrazol-3-yl)amino)-6,7-dihydro-5H-cyclopenta[d]pyrimidin-2-yl)-N-methyl-N-(thiazol-2-yl)pyrrolidine-2-carboxamide], the IC50 against activated IR is 0.364 µM; on FLT3, 0.112 µM; on ABL2/ARG, 0.041 µM; against ROS/ROS1 it was 0.00441 µM. On activated IR (compound 1 μM), the inhibition at 1 µM stood at 77%.

As for `CC(C)(C)c1cc(Nc2nc(N3CCC[C@@H]3C(=O)N3CCC(F)(F)CC3)nc3c2CCC3)n[nH]1` [142a, (R)-(1-(4-((5-(tert-butyl)-1H-pyrazol-3-yl)amino)-6,7-dihydro-5H-cyclopenta[d]pyrimidin-2-yl)pyrrolidin-2-yl)(4,4-difluoropiperidin-1-yl)methanone], the IC50 at activated IR was 2.94 µM; against FLT3 it was > 1 µM; against ABL2/ARG, > 1 µM; on ROS/ROS1, > 1 µM.

With `CC1(C(=O)N2CCC(F)(F)CC2)CCCN1c1nc2c(c(Nc3cc(C4CCCC4)[nH]n3)n1)CCC2` (racemic) [compound 146, (1-(4-((5-cyclopentyl-1H-pyrazol-3-yl)amino)-6,7-dihydro-5H-cyclopenta[d]pyrimidin-2-yl)-2-methylpyrrolidin-2-yl)(4,4-difluoropiperidin-1-yl)methanone], the values for the IC50 on activated IR and at FLT3 were > 30 µM and 0.798 µM, respectively.

For `CCC(=O)N1CCN(C(=O)[C@H]2CCCN2c2nc3c(c(Nc4cc(C5CCCC5)[nH]n4)n2)CCC3)CC1` [143a, 1-(4-((4-((5-cyclopentyl-1H-pyrazol-3-yl)amino)-6,7-dihydro-5H-cyclopenta[d]pyrimidin-2-yl)-D-prolyl)piperazin-1-yl)propan-1-one], the IC50 is 0.65 µM at activated IR, 0.0139 µM on FLT3, 0.398 µM on ABL2/ARG and 0.0522 µM at ROS/ROS1.
